Assay results: patent US5296498A, “Guanidine compounds” (Adir et Compagnie, priority 1990, dated 1994)
Structures can show the parent of a compound that is named as a salt.

What was measured:
[1] = molecular target: T1, 5-HT1A receptors (Homo sapiens, UniProt P08908); experiment: In vitro affinity test for 5-HT1A receptors; details: conventional binding technique, read-out: Ki with respect to 5-HT1A receptors
T1 sequence (P08908 1-422): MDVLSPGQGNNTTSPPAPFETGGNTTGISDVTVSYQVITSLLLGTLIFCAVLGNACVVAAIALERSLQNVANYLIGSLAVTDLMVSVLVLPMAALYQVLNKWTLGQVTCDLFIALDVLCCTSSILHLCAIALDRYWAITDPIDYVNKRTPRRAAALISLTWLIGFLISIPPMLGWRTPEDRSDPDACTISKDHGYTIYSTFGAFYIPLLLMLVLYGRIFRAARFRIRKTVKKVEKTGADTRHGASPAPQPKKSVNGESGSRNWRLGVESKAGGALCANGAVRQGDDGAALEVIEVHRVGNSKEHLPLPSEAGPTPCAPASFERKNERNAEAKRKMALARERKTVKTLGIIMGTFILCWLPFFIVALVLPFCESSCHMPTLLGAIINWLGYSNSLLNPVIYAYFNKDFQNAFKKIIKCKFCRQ
Method: (§1) EXAMPLE 8: In vitro affinity test for endazoline, α1 and α2 and 5-HT receptors
(§2) The in vitro affinity tests for endazoline receptors were carried out according to a technique described by A. Parini et al. (Biochem. and Biophys. Res. Comm. 147(3), 1055, 1987), and according to conventional binding techniques for the other receptors.

[2] = molecular target: 5-HT1B receptors (Rattus norvegicus, UniProt P28564); experiment: In vitro affinity test for 5-HT1B receptors; details: conventional binding technique, read-out: Ki with respect to 5-HT1B receptors
5-HT1B receptors, sequence (P28564 whole entry): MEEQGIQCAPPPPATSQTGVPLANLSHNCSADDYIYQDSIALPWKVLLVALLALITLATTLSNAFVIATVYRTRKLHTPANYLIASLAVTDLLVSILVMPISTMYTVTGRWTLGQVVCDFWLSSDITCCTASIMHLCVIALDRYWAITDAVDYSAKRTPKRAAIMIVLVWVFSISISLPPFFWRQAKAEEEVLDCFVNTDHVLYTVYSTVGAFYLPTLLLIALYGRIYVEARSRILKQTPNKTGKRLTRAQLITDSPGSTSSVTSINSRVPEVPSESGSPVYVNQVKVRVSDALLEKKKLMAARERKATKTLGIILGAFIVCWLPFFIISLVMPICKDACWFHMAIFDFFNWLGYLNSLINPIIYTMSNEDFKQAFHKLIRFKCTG
Method: as §1, §2

[3] = molecular target: 5 HT2 receptors (Homo sapiens, UniProt P28223); experiment: In vitro affinity test for 5-HT2 receptors; details: conventional binding technique, read-out: Ki with respect to 5 HT2 receptors
5 HT2 receptors, sequence (P28223 whole entry): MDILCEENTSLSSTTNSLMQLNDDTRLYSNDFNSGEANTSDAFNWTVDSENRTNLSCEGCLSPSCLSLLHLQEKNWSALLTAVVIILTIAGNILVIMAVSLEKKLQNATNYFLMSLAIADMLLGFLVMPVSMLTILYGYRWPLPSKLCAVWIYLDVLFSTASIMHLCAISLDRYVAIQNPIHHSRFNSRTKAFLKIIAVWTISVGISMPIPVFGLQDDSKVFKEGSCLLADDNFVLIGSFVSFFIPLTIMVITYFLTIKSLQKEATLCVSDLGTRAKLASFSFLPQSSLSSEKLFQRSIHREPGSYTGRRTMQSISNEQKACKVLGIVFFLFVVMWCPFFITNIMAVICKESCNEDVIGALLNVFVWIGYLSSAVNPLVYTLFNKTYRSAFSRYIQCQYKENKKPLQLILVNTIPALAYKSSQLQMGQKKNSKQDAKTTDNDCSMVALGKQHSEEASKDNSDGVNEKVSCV
Method: as §1, §2

[4] = molecular target: T2, 5-HT3 receptors (Homo sapiens, UniProt P46098); experiment: In vitro affinity test for 5-HT3 receptors; details: conventional binding technique, read-out: Ki with respect to 5-HT3 receptors
T2 sequence (P46098 24-478): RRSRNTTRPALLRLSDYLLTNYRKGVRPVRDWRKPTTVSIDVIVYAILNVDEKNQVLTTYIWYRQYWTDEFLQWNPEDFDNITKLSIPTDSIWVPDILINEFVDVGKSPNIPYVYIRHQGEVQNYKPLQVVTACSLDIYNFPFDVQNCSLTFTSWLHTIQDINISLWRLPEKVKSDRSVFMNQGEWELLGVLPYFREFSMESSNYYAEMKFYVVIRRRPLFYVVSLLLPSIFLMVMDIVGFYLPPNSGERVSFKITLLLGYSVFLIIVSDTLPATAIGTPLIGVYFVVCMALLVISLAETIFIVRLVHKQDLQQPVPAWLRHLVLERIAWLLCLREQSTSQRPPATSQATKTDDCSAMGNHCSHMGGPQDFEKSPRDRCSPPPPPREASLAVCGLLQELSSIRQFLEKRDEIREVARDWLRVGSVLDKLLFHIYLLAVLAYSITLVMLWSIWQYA
Method: as §1, §2

N=C(N)NN=CC(C1CC1)C1CC1 [Example 2, (2,2-Dicyclopropylethylidene)aminoguanidine hydrochloride]
Ki [1]: ~10 µM | Ki [2]: ~100 µM | Ki [3]: ~20 µM | Ki [4]: ~2 µM
